Results as given in patent US20150165400A1, “CRYSTALLISATION PROCESS” (University of Bradford, priority 2012, published 2015).
Blank lines part the entries; values can stand above or below the compound they belong to.

How the values were obtained:
[1] = Pharmacokinetic study of artemisinin, plasma level by HPLC; format: in vivo, albino wistar rats; settings: rats, 100 mg artemisinin in 0.5% aqueous CMC
Protocol: A pharmacokinetic study of artemisinin was carried out. The study was performed using 36 healthy albino wistar rats with a weight ranging from 180 to 200 grams. The wistar rats were taken and divided into three groups; a control group, the orthorhombic crystal form group and the triclinic crystal form group. A sparse technique was used to collect blood samples (n=6). The animals were housed in standard metabolism cages and were subject to fasting conditions for 12 hours before dosing. The animals were allowed free movement and access to water throughout the experiment. […] At predetermined time intervals, blood samples were obtained by the retro orbital technique and collected in EDTA tubes. Plasma was obtained by centrifugation of the blood sample at 3500 revolutions per minute (rpm) for 15 minutes. A volume of 200 μl of plasma was pipetted into Eppendorf tubes and 100 μl of internal standard (artemether solution […]) and 700 μl methanol were added. […] The collected sample was then subjected to analysis by HPLC. […] The HPLC system consisted of an Agilent 1200 series, UV detector (Agilent Technologies, […], Wokingham, United Kingdom) set at 210 nm and a C18 column (250×4.6 mm). […] The plasma concentration-time profiles were plotted and Areas Under Curve (AUC) were calculated (shown in FIG. 35) using the Trapezoidal rule.

[2] = Stability study of triclinic form recrystallised from cyclohexane, PXRD; format: physicochemical; settings: recrystallised from cyclohexane at 80° C., vacuum dried
Excerpt: The product obtained was vacuum dried and the crystal form was confirmed by PXRD.

[3] = Effect of externally added solvents on extruded triclinic form, stability by PXRD; format: physicochemical
Excerpt: Effect of different solvents such as acetone, ethanol, cyclohexane, methanol and water on extruded triclinic form was studied. […] FIGS. 21 to 25 show the PXRD patterns highlighting the effect of adding the different solvents to extrude. It was observed that conversion rate from triclinic to orthorhombic form was proportional to solubility of orthorhombic form in each solvent.

[4] = In-vitro dissolution profile, USP-XXVI paddle method; format: physicochemical; settings: water, 600 ml, 75 rpm, 37° C., 20 mg artemisinin

average maximum concentration (Cmax) ([1]; oral, plasma): 16000 ng/mL
average time where the concentration reached a maximum (Tmax) ([1]; oral, plasma): 4 h
Compound: C[C@@H]1CC[C@H]2[C@@H](C)C(=O)O[C@@H]3O[C@@]4(C)CC[C@@H]1[C@]32OO4 [orthorhombic form, artemisinin, reference compound]

Compound: C[C@@H]1CC[C@H]2[C@@H](C)C(=O)O[C@@H]3O[C@@]4(C)CC[C@@H]1[C@]32OO4 [artemisinin]
stability of crystal form (transformation to orthorhombic form) [2]: transformed to orthorhombic form within a week

transformation to orthorhombic form in the sample containing water ([3]; 0.2 ml water added to 3 g extruded sample): no transformation was observed
Cmax ([1]; albino Wistar, rat, plasma, po, 100 mg, plasma, read-out: average maximum concentration (Cmax)): 31000 ng/mL
Tmax ([1]; albino Wistar, rat, plasma, po, 100 mg, plasma, read-out: average time where the concentration reached a maximum (Tmax)): 5 h
AUC compared with the orthorhombic form ([1]; oral): two fold increase
dissolution rate in comparison with starting material [4]: four times greater
Compound: C[C@@H]1CC[C@H]2[C@@H](C)C(=O)O[C@@H]3O[C@@]4(C)CC[C@@H]1[C@]32OO4 [triclinic form, artemisinin]
rank order of transformation from triclinic to orthorhombic form ([3]; 0.2 ml solvent added to 3 g extruded sample): acetone>methanol>ethanol>cyclohexane>water
